# Measured values published in patent US20180214442A1, “METHODS FOR ATTENUATING OR PREVENTING MU(μ)-OPIOID RECEPTOR MEDIATED TOLERANCE AND OPIOID-INDUCED […]” (The Board of Trustees of the Leland Stanford Junior …, priority 2017, published 2018).
# How the values were obtained:
# [1] = system: laxation responses; details: subcutaneous MNB 5, 12.5 or 20 mg; clinical; cited from earlier work
# [2] = system: wild-type C57Bl/6J mice; experiment: Morphine and MNB combination in wild-type mice: nociceptive reflexes, affective-motivational behaviors, tolerance and OIH; assay type: in vivo, mouse
# Method: (a) Temporal raster plot of nociception-induced sensory-reflexive and affective-motivational behaviors in an inescapable noxious environment (enclosed 52.5° C. hotplate). […] MNB doses 0.0-1.0 mg/kg, n=10; MNB 10 mg/kg, n=7 for reflexive tests and n=5 for affective-motivational tests. Best-fit lines were generated following non-linear regression analysis based on the % MPE for each mouse. One-way ANOVA+Bonferroni (left panels of b,d,f-k). ★ P<0.05. Error bars are mean±SEM. Overlaid points are individual animal scores. PID=post-injury day.
# (b) Visual depiction of reflexive paw flinching behavior. (c) Latencies to the first paw flinch. (d) Number of paw flinches (see FIG. 17). (e) Visual depiction of hindpaw guarding behavior. (f) Latency to the first onset of hindpaw guarding. (g) Total duration of time spent engaged in hindpaw guarding. (h) Visual depiction of hindpaw attending. (i) Latency to the first onset of hindpaw attending. (j) Total duration of time spent engaging in hindpaw attending. (k) Visual depiction of escape jumping behavior. (1) Latency to the first jump. […] (m) Number of escape jumps. […] Error bars are±SEM.
# Repeated Measures 2-way ANOVA+Bonferonni. ★ P<0.05. Error bars are mean±SEM.
# (§1) To evaluate mechanical reflexive hypersensitivity (Weibel et al., 2013), we used a logarithmically increasing set of 8 von Frey filaments (Stoelting), ranging in gram force from 0.007 to 6.0 g. These were applied perpendicular to the plantar hindpaw with sufficient force to cause a slight bending of the filament. A positive response was characterized as a rapid withdrawal of the paw away from the stimulus filament within 4 s. Using the up-down statistical method (Solway et al., 2011), the 50% withdrawal mechanical threshold scores were calculated for each mouse and then averaged across the experimental groups.
# (§2) To evaluate affective-motivational responses to an acute, focal thermal stimulus (Madisen et al., 2012), we applied either a single, unilateral 50 μl drop of 55° C. water or acetone (evaporative cooling) to the left hindpaw, and the duration of attending behavior was collected for up to 30 seconds after the stimulation. Only one stimulation per thermal drop was applied on a given testing session, in order to prevent behavioral sensitization that can result from multiple noxious stimulations and then averaging those responses.
# To evaluate affective-motivational responses to a sustained, inescapable noxious thermal stimulus, mice were placed on a 52.5° C. hot plate for 45 seconds. A high-speed camera (on the side, level with the hot plate floor) was used to capture the movement, speed, velocity, and detailed reflexive and affective-motivational behaviors of the mice, as described above.
# As opposed to the standard hot-plate test, all behaviors such as reflexive paw flinching (rapid flicking of the limb), paw attending (directed licking of the limb), paw guarding (intentional lift protection of the limb), and escape jumping for the duration of the trial were scored. This allowed the analysis of the high-speed videos, blinded to plate temperature or treatment, for the total time spent engaging in affective-motivational behaviors and the number of nociceptive reflexives, as opposed to the traditional metric of merely determining the latency to the first reflexive response.
# [3] = system: mice with tibia fracture and bone pinning; details: morphine alone 10 mg/kg
# Excerpt: (§3) Error bars are mean±SEM. Overlaid points are individual animal scores. PID=post-injury day.
# as §3, §1, §2
# [4] = system: wild-type control and global MOR KO mice; experiment: Chronic morphine analgesic tolerance and OIH in wild-type control and global MOR KO mice (thermal tail immersion); assay type: in vivo, mouse
# Method: These treatments were given for 6 days (Days 2-7). […] (b) Untransformed, raw sensory threshold scores for same data presented in FIG. 1, panels a and b. n=6 for all groups. ★ P<0.05. Error bars are±SEM.
# (§4) The tail-immersion test was used to evaluate thermal reflexive hypersensitivity (Woolf, 1984) with the temperature of the water bath being set to 48-52.5° C. The mouse was gently restrained and 2 cm of the tip of the tail was submerged in the water bath, and the latency (seconds) to reflexively withdraw the tail from the water was recorded as a positive nociceptive reflex response. A maximal cut-off of 45-60 s was set to prevent tissue damage.
# [5] = system: mice with chronic constriction injury (CCI) of the sciatic nerve; details: CCI + morphine alone 10 mg/kg
# Excerpt: as §3, §1, §2
# [6] = system: MOR cKO mice and littermate controls; experiment: Acute morphine antinociception in MOR cKO mice and littermate controls (von Frey, tail immersion, hotplate); assay type: in vivo, mouse
# Excerpt: as §1
# [7] = system: MOR cKO mice and littermate controls; experiment: 10 day chronic morphine schedule: antinociceptive tolerance and OIH in MOR cKO mice and littermate controls; assay type: in vivo, mouse; details: 10 mg/kg subcutaneous once daily for 10 days
# Method: Nociceptive behavior (pre-morphine BL timepoints only): von Frey: F1, 30=9.863, P=0.004; tail immersion: F1, 30=0.7311; hotplate: F1, 30=[…]. Antinociception (post-morphine+30 min timepoints only): von Frey: F1, 30=4.812, P=0.0367; tail immersion: F1, 30=19.74, P<0.0001; hotplate: F1, 30=17.23, P=0.0004. […] Control, n=19; MOR cKO, n=13. BL=baseline. […] Repeated Measures Two-way ANOVA+Bonferroni (a,d,g and left panels of b,c,e,f,h,i). ★ P<0.05. Error bars are mean±SEM. Overlaid points are individual animal scores. BL=baseline.
# as §4
# The hotplate test was used to evaluate thermal-induced affective-motivational responses (Woolf, 1984) with the plate temperature being set to 50-52.5° C.). Mice were place on the plate and the latency (seconds) to the first appearance of an attending response (lick and/or bite at one or both hindpaws) was recorded as a positive affective-motivational response. A maximal cut-off of 45 s was set to prevent tissue damage.
# Next the development of morphine antinociceptive tolerance and OIH in MOR cKO mice was evaluated. […] We measured thermal and mechanical nociceptive thresholds, and affective-motivational responses to noxious thermal stimuli prior to, and 30 min after, each daily injection, to evaluate OIH and tolerance, respectively (FIG. 3, panels a, d, g).
# [8] = system: light-evoked excitatory postsynaptic currents (EPSCs) in lamina I-II outer neurons; experiment: Spinal cord slice whole-cell recording of light-evoked EPSCs from ChR2-expressing TRPV1 nociceptors; assay type: cell-based, mouse
# Excerpt: FIG. 4. Opioid-induced spinal long-term potentiation (LTP) is initiated by presynaptic MOR in nociceptors. (a,b) MOR cKO mice crossed with a mouse line expressing Channel-rhodopsin2 (ChR2-eYFP) in a Cre-dependent manner produces expression of ChR2-eYFP in Trpv1^Cre+DRG nociceptor cell bodies and central terminals in the spinal cord dorsal horn. Scale bars=50 m, throughout. (c,d) Blue light-evoked (473 nm, 1.0 mW/cm^2, 0.2 ms, 0.05 Hz) excitatory postsynaptic currents (EPSCs) recorded in laminae I and II outer spinal neurons in slices from MOR cKO and littermate controls. Numbered inset traces correspond to individual EPSCs before, during, and after wash-out of bath applied DAMGO (500 nM; 5 min duration). Scale bar=100 pA, 10 ms. (c) DAMGO-induced depression of EPSC amplitude and rebound LTP after washout (Control+LTP; n=8/15 neurons) in control slices. […] Error bars are mean±SEM.
# Adult mice (6-8 weeks old) were anesthetized with isoflurane, decapitated, and the vertebral column was rapidly removed and placed in oxygenated ice-cold dissection solution (in mM: 95 NaCl, 2.5 KCl, 1.25 NaH2PO4, 26 NaHCO3, 50 sucrose, 25 glucose, 6 MgCl2, 1.5 CaCl2, and 1 kynurenic acid, pH 7.4, 320 mOsm). The lumbar spinal cord was isolated, embedded in a 3% agarose block, and transverse slices (400 Lm thick) were made using a vibrating microtome (Leica V T 1200S). Slices were incubated in oxygenated recovery solution (in mM: 125 NaCl, 2.5 KCl, 1.25 NaH2PO4, 26 NaHCO3, 25 glucose, 6 MgCl2, and 1.5 CaCl2, pH 7.4, 320 mOsm) at 35° C. for 1 hour before recording. Patch-clamp recording in whole-cell configuration was performed at 32° C. on lamina I or lamina II outer zone neurons visualized with an Olympus microscope (BX51WI age-MTI). Slices were perfused at ˜2 ml/min with recording solution (in mM: 125 NaCl, 2.5 KCl, 1.25 NaH2PO4, 26 NaHCO3, 25 glucose, 1 MgCl2, 2 CaCl2, pH 7.4, 320 mOsm). Recordings were performed in voltage-clamp mode at a holding potential of −70 mV. Thick-walled borosilicate pipettes, having a resistance of 3-6 MOhm, were filled with internal solution (in mM: 120 potassium gluconate, 20 KCl, 2 MgCl2, 5 MgATP, 0.5 NaGTP, 20 HEPES, 0.5 EGTA, PH 7.25 with KOH, ˜300 mOsm). All data were acquired using a Multiclamp 700B amplifier and pClamp10 software (Molecular Devices). Sampling rate was 10 kHz and data were filtered at 2 kHz. Analysis of eEPSC peak amplitudes was done with Clampfit software (pClamp10, Molecular Devices). Graphs and statistical analysis were generated with Igor Pro (Wave Metrics).
# To isolate the TRPV1 nociceptor mediated EPSCs, we crossed the TRPV1-Cre mice with Ai32 mice (Rosa-CAG-LSL-ChR2(H134R)-EYFP-WPRE) (Bardoni et al., 2014) to limit the channelrhodopsin 2 expression specifically to TRPV1 primary afferents. […]
# [9] = subcutaneous morphine 10 mg/kg, acute
smiles,measurement,setting,value
"C[N@+]1(CC2CC2)CC[C@]23c4c5ccc(O)c4O[C@H]2C(=O)CC[C@@]3(O)[C@H]1C5 [MNB, methylnaltrexone bromide]","laxation responses, percentage of responders",[1],higher percentage of responders after 5 or 12.5 mg subcutaneous MNB compared to a 20 mg dose
same,"dose-response of MNB effect on morphine tolerance, latency to nociceptive reflexes (paw flinch)","[2]; 45 s 52.5° C. hot plate, morphine 10 mg/kg + MNB 0.1-10.0 mg/kg",bell-shaped dose-response curve
same,effect of MNB on morphine antinociceptive effects,[2]; MNB 0.1-10.0 mg/kg combined with morphine,did not alter morphine antinociceptive effects
same,"onset of morphine antinociceptive tolerance and OIH, 10-day treatment","[2]; MNB 1 or 10 mg/kg + morphine for 10 days, von Frey and 52.5° C. hotplate",prevents the onset of morphine antinociceptive tolerance and OIH
same,onset of tolerance and OIH,[2]; morphine 10 mg/kg + MNB 0.1-10.0 mg/kg once daily for 7 days,dose-dependently prevents the onset of morphine antinociceptive tolerance and OIH
"CN1CC[C@]23c4c5ccc(O)c4O[C@H]2[C@@H](O)C=C[C@H]3[C@H]1C5.O=S(=O)(O)O [morphine, Morphine sulfate]",reduction of nociceptive or affective-motivational orthotrauma pain after chronic treatment,[3]; after 7 days of chronic treatment,no longer effective
same,"antinociception, acute",[3]; first administration,acutely produced antinociception
same,OIH,"[4]; global MOR KO mice, twice daily escalating 10 to 40 mg/kg schedule",no OIH
same,analgesic tolerance and OIH,"[4]; wild-type mice, chronic morphine, fixed once daily 10 mg/kg or twice daily escalating 10 to 40 mg/kg, subcutaneous",significant tolerance and OIH
same,OIH,[5],No indications of OIH
same,"antinociceptive tolerance and OIH, reflexive and affective-motivational measures","[2]; morphine alone 10 mg/kg once daily for 7 days, Day 7 compared to Day 1",robust antinociceptive tolerance and OIH
same,affective-motivational behaviors,[2]; [9],effective at alleviating affective-motivational behaviors
same,nociceptive reflexes,[2]; [9],significantly reduce nociceptive reflexes
same,reflexive or affective-motivational antinociception,"[6]; MOR cKO mice, acute intrathecal 1 μg",did not produce significant reflexive or affective-motivational antinociception
same,reflexive and affective-motivational antinociception,"[6]; MOR cKO mice, subcutaneous 10 mg/kg",maximal reflexive and affective-motivational antinociception
same,antinociception,"[6]; control mice, acute intrathecal 1 μg",robust antinociception
same,OIH for thermal and mechanical stimuli,[7]; MOR cKO mice vs controls,significantly less OIH than controls
same,morphine antinociception over chronic treatment (tolerance),[7]; MOR cKO mice,retained near full antinociceptive efficacy
same,morphine antinociception over chronic treatment (tolerance),[7]; littermate controls,progressively diminished
"C[C@@H](NC(=O)[C@@H](N)Cc1ccc(O)cc1)C(=O)NCC(=O)N(C)[C@@H](Cc1ccccc1)C(=O)NCCO [DAMGO, [D-Ala^2, N-MePhe^4, Gly-ol^5]-enkephalin]",EPSC amplitude during DAMGO,"[8]; MOR cKO slices, 9 out of 9 neurons, 500 nM",98±8.12 % of control
same,EPSC amplitude after DAMGO-washout,"[8]; MOR cKO slices, 9 out of 9 neurons, after washout of 500 nM",96.2±11.9%
same,EPSC amplitude after washout (LTP),"[8]; control slices, 8 out of 15 neurons, thirty minutes after washout of 500 nM",142.2±6.1 % of control
same,depression of light-evoked EPSCs,"[8]; control slices, all 15 recorded neurons, 500 nM bath application, at 5 min of application",52±10.5 % inhibition
